Results published in patent US20090012152A1, “Use of Tetramic Acid Derivatives for Controlling Insects from the Genus of the Plane Lice (Sternorrhyncha)” (Bayer CropScience Aktiengesellschaft, priority 2005, published 2009).

Key:
Assay type in all cases: in vivo
Psylla piri [1] = assay: Example 6: pear trees treated against Psylla piri; details: larvae on shoots, % a.i.: amitraz 0.05, I-9, I-2, I-1 0.096; for Kill (%) 3 d: 3 d after last of two treatments; for Kill (%) 10 d: 10 d after last of two treatments; for Kill (%) 20 d: 20 d after last of two treatments
Protocol: In three replications, in each case 4 about 4-year-old pear trees of the cultivar “Williams Christ” are treated against Psylla piri. Two applications are carried out at an interval of 11 days using a motor-operated barrow-mounted sprayer. Here, the active compounds Example (I-9) (240 SC), Example (I-2) (240 SC) and Example (I-1) (240 SC) are tested against the commercial standard Amitraz (200 EC) at the stated amounts. The application rate is 2000 l of water/ha.
Evaluation is carried out 3, 10 and 20 days after the last treatment by rating the kill of the larvae in percent on the shoots.

Saissetia oleae = assay: Example 13: orange trees treated against Saissetia oleae; details: nymphs on leaves, g a.i./ha/m crown height: buprofezin 500, I-4 72, I-8 30
Protocol: In three replications, in each case two about 8-year-old orange trees are treated against Saissetia oleae. Here, the active compounds Example (I-4) (240 SC) and Example (I-8) (250 SC) in a tank mix with 0.2% a.i. of rapeseed oil methyl ester (500 EW) at the stated application rate are tested against the commercial standard buprofezin in a tank mix with 0.4% a.i. of Oliocin (800 EW) at the stated application rate. The application is carried out using a motor-operated knapsack sprayer. The application rate is 3000 l of water/ha. Two treatments are carried out, at an interval of 29 days.
Evaluation is carried out 24 and 44 days after the last treatment by rating the kill of the nymphs on the leaves.

Bemisia argentifolii [2] = assay: Example 36: aubergine plants (Ryoma) treated against Bemisia argentifolii; details: nymphs on leaves, % a.i.: pymetrozine 0.0125, I-4 0.072, I-8 0.06; for Kill (%) 13 d: 13 d after treatment; for Kill (%) 20 d: 20 d after treatment; for Kill (%) 27 d: 27 d after treatment
Protocol: In three replications, in each case four aubergine plants of the cultivar “Ryoma” are treated against Bemisia argentifolii. The application is carried out using a motor-operated knapsack sprayer. Here, the active compounds Example (I-4) and Example (I-8), in a tank mix with 0.2% a.i. of rapeseed oil methyl ester (500 EW), and the commercial standard pymetrozine (25 WP) are tested at the stated application rates. The application rate is 3200 l of water/ha.
Evaluation is carried out 13, 20 and 27 days after the treatment by rating the kill of the nymphs on the leaves.

Nasonovia ribisnigri = assay: Example 42: head lettuce treated against Nasonovia ribisnigri; details: on plants, g a.i./ha: Pirimor 150, I-4 48, I-8 42
Protocol: In four replications, plots of a size of 5 m^2 with head lettuce are, two weeks after transplantation, treated against Nasonovia ribisnigri. The application is carried out using a knapsack sprayer operated with pressurized air. Here, the active compounds Example (I-4) (240 SC) and Example (I-8) (240 SC) are, in a tank mix with 0.2% a.i. of rapeseed oil methyl ester (500 EW), tested against the commercial standard Pirimor, at the stated application rates. The application rate is 500 l of water/ha.
Evaluation is carried out 7, 14 and 26 days after the treatment by rating the kill of the animals on the plants.

Pemphigus bursarius = assay: Example 3: chrysanthemums, lettuce root aphid; details: on roots, drip irrigation 0.1%
Protocol: In three replications, in each case 10 about 5-month-old chrysanthemums (Camilla) in 2 l-vessels are treated against the lettuce root aphid Pemphigus bursarius. Here, the active compound Example (I-4) (240 SC) is applied with a knapsack sprayer operated by pressurized air at the beginning of the infestation at the stated application rates to the above-ground parts of the plants. The soil is covered with a film. The application rate is 600 l of water/ha. 0.1% a.i. of rapeseed oil methyl ester (500 EW) is added to the spray liquor. Omethoate as drip irrigation in a concentration of 0.1% is used for comparison. The application is carried out two days later.
The kill in percent is determined on the roots. […]

Bemisia argentifolii [3] = assay: Example 37: cantaloupe melons treated against Bemisia argentifolii; details: nymphs on leaves, g a.i./ha: endosulfan 1120, I-4 48
Protocol: In four replications, plots of a size of about 39 m^2 with cantaloupe melons of the cultivar “Western Shipper” are treated against Bemisia argentifolii. The application is carried out using a knapsack sprayer operated with pressurized air. Here, the active compound Example (I-4) (240 SC), in a tank mix with 0.2 a.i. of rapeseed oil methyl ester (500 EW), and the commercial standard endosulfan (360 EC) are tested at the stated application rates. Two applications are carried out at an interval of 16 days. The application rate is 187 l of water/ha.
Evaluation is carried out 5, 13, 21 and 29 days after the first treatment by rating the kill of the animals (nymphs) on the leaves.

Aulacorthum solani = assay: Example 46: head lettuce treated against Aulacorthum solani; details: nymphs on plants, g a.i./ha: endosulfan 1120, I-4 48
Protocol: (§1) In four replications, plots of a size of about 33 m^2 with head lettuce of the cultivar “PIC 714” are treated against Aulacorthum solani, Macrosiphum euphorbiae and Myzus persicae. The application is carried out using a tractor sprayer. Here, the active compound Example (I-4) (240 SC), in a tank mix with 0.2% a.i. of rapeseed oil methyl ester (500 EW), is tested against the commercial standard endosulfan (360 EC), at the stated application rates. The application rate is 187 l of water/ha. Two treatments are carried out, at an interval of 22 days.
(§2) Evaluation is carried out 8, 22, 30 and 40 days after the first treatment by rating the kill of the nymphs on the plants.

Macrosiphum euphorbiae = assay: Example 46: head lettuce treated against Macrosiphum euphorbiae; details: nymphs on plants, g a.i./ha: endosulfan 1120, I-4 48
Protocol: as §1, §2

Myzus persicae [4] = assay: Example 46: head lettuce treated against Myzus persicae; details: nymphs on plants, g a.i./ha: endosulfan 1120, I-4 48
Protocol: as §1, §2

Myzus persicae [5] = assay: Example 48: aubergine plants treated against Myzus persicae; details: on leaves, rate (g of a.i./ha): pymethrozine 0.0125, I-4 0.024
Protocol: In three replications, four aubergine plants (age about 7 months) of the cultivar “Hayabusa” are treated against Myzus persicae. The application is carried out using a motor-operated knapsack sprayer. Here, the active compound Example (I-4) (240 SC), in a tank mix with 0.1% a.i. of rapeseed oil methyl ester (500 EW), and the commercial standard pymethrozine (25 WP) are tested at the stated application rates. The application rate is 3000 l of water/ha.
Evaluation is carried out 7, 14, 21 and 29 days after the treatment by rating the kill of the animals on the leaves.

Myzus persicae [6] = assay: Example 50: tomatoes treated against Myzus persicae; details: nymphs on leaves, g a.i./ha: acetamiprid 50, I-9 36, I-4 48
Protocol: In two replications, plots of a size of about 43 m^2 with tomatoes of the cultivar “Yaqui” are treated against Myzus persicae. The application is carried out using a motor-operated knapsack sprayer. Here, the active compounds Example (I-9) (240 SC) and Example (I-4) (240 SC), in a tank mix with 0.1% a.i. of rapeseed oil methyl ester (500 EW), and the standard acetamiprid (20 WP) are applied at the stated application rates. The application rate is 208 l of water/ha.
Evaluation is carried out 3 and 10 days after the treatment by rating the kill of the nymphs on the leaves.

Psylla piri [7] = assay: Example 5: pear trees treated against Psylla piri; details: nymphs on shoots, g a.i./ha/m crown height: amitraz 266, I-4 72
Protocol: In three replications, pear trees of the cultivar “Williams Christ” are treated against Psylla piri. Application is shortly before the eggs hatch. The application is carried out using a barrow-mounted sprayer operated with pressurized air. Here, the active compound Example (I-4) (240 SC) is tested in a tank mix with 0.1% a.i. rapeseed oil methyl ester (500 EW) at the stated amount against the standard amitraz (200 EC) at the stated amount. The application rate is 1000 l of water/ha.
Evaluation is carried out 7, 14 and 21 days after the treatment by rating the kill of the nymphs on the shoots.

Paratrioza cockerelli = assay: Example 7: bell peppers treated against Paratrioza cockerelli; details: nymphs on leaves, g a.i./ha: imidacloprid 52.6, I-4 72, dimethoate 561
Protocol: In four replications, plots of a size of about 7 m^2 with bell peppers of the cultivar “Jupiter” are treated against Paratrioza cockerelli. The application is carried out with a knapsack sprayer operated with pressurized air. Here, the active compound Example (I-4) (240 SC) is applied in a tank mix with 0.2% a.i. of rapeseed oil methyl ester (500 EW) and the commercial standards imidacloprid 192 SC and dimethoate (480 EC) are applied in a tank mix with 0.125% Induce at the stated application rates. The application is carried out with an application rate of 467 l of water/ha.
Evaluation is carried out 7 and 15 days after the treatment by rating the kill of the animals (nymphs) on the leaves.

[8] = 8 d after first of two treatments
[9] = 22 d after first of two treatments
[10] = 30 d after first of two treatments
[11] = 40 d after first of two treatments

SMILES: COC1CCC2(CC1)NC(=O)C(c1cc(C)ccc1Br)=C2OC(=O)C(C)C (stereo not drawn) [Example (I-1)]
- Kill (%) 3 d (Psylla piri [1]): 90.0%
- Kill (%) 10 d (Psylla piri [1]): 96.6%
- Kill (%) 20 d (Psylla piri [1]): 95.0%

SMILES: CCOC(=O)OC1=C(c2cc(C)c(Cl)cc2C)C(=O)NC12CCC(OC)CC2 (stereo not drawn) [Example (I-8)]
- Kill (%) 24 d (Saissetia oleae; 24 d after last of two treatments): 66.5%
- Kill (%) 44 d (Saissetia oleae; 44 d after last of two treatments): 56.1%
- Kill (%) 13 d (Bemisia argentifolii [2]): 99.5%
- Kill (%) 20 d (Bemisia argentifolii [2]): 99.9%
- Kill (%) 27 d (Bemisia argentifolii [2]): 97%
- Kill (%) 7 d (Nasonovia ribisnigri; 7 d after treatment): 80.8%
- Kill (%) 14 d (Nasonovia ribisnigri; 14 d after treatment): 93.6%
- Kill (%) 26 d (Nasonovia ribisnigri; 26 d after treatment): 92.7%

SMILES: CNC(=O)CSP(=O)(OC)OC [omethoate, reference compound]
- Kill (%) 7 d (Pemphigus bursarius; 7 d): 20 (7 d) %
- Kill (%) 15 d (Pemphigus bursarius; 15 d): 70.6 (15 d) %

SMILES: O=S1OCC2C(CO1)C1(Cl)C(Cl)=C(Cl)C2(Cl)C1(Cl)Cl (stereo not drawn) [endosulfan, reference compound]
- Kill (%) 5 d (Bemisia argentifolii [3]; 5 d after first of two treatments): 0%
- Kill (%) 13 d (Bemisia argentifolii [3]; 13 d after first of two treatments): 100%
- Kill (%) 21 d (Bemisia argentifolii [3]; 21 d after first of two treatments): 80.8%
- Kill (%) 29 d (Bemisia argentifolii [3]; 29 d after first of two treatments): 66.7%
- Kill (%) 8 d (Aulacorthum solani; [8]): 96%
- Kill (%) 22 d (Aulacorthum solani; [9]): 88%
- Kill (%) 30 d (Aulacorthum solani; [10]): 98%
- Kill (%) 40 d (Aulacorthum solani; [11]): 53%
- Kill (%) 8 d (Macrosiphum euphorbiae; [8]): 100%
- Kill (%) 22 d (Macrosiphum euphorbiae; [9]): 100%
- Kill (%) 30 d (Macrosiphum euphorbiae; [10]): 99%
- Kill (%) 40 d (Macrosiphum euphorbiae; [11]): 96%
- Kill (%) 8 d (Myzus persicae [4]; [8]): 95%
- Kill (%) 22 d (Myzus persicae [4]; [9]): 61%
- Kill (%) 30 d (Myzus persicae [4]; [10]): 100%

SMILES: CC1=NNC(=O)N(/N=C/c2cccnc2)C1 [pymetrozine, reference compound]
- Kill (%) 13 d (Bemisia argentifolii [2]): 79%
- Kill (%) 20 d (Bemisia argentifolii [2]): 74%
- Kill (%) 27 d (Bemisia argentifolii [2]): 75%
- Kill (%) 7 d (Myzus persicae [5]; 7 d after treatment): 99.9%
- Kill (%) 14 d (Myzus persicae [5]; 14 d after treatment): 99%
- Kill (%) 21 d (Myzus persicae [5]; 21 d after treatment): 95%
- Kill (%) 29 d (Myzus persicae [5]; 29 d after treatment): 73%

SMILES: C/C(=N\C#N)N(C)Cc1ccc(Cl)nc1 [acetamiprid, reference compound]
- Kill (%) 3 d (Myzus persicae [6]; 3 d after treatment): 78.7%
- Kill (%) 10 d (Myzus persicae [6]; 10 d after treatment): 73.5%

SMILES: Cc1ccc(/N=C/N(C)/C=N/c2ccc(C)cc2C)c(C)c1 [amitraz, reference compound]
- Kill (%) 7 d (Psylla piri [7]; 7 d after treatment): 100%
- Kill (%) 14 d (Psylla piri [7]; 14 d after treatment): 95.2%
- Kill (%) 21 d (Psylla piri [7]; 21 d after treatment): 75%
- Kill (%) 3 d (Psylla piri [1]): 54.3%
- Kill (%) 10 d (Psylla piri [1]): 56.7%
- Kill (%) 20 d (Psylla piri [1]): 21.4%

SMILES: CNC(=O)CSP(=S)(OC)OC [dimethoate]
- Kill (%) 7 d (Paratrioza cockerelli; 7 d after treatment): 63%
- Kill (%) 15 d (Paratrioza cockerelli; 15 d after treatment): 0%
